The source of these data is patent US9023838B2, “Crystalline form I rosuvastatin zinc salt” (Egis Gyogyszergyar Nyilvanosan Muekoedoe, priority 2009, dated 2015).

Data set [1] can be described thus: Hygroscopicity (water absorbed). The data set is classed as physicochemical.
Data set [2] in a line: Chemical stability on storage at 25° C., 60% relative humidity (impurity concentrations). In kind it is physicochemical. The note with it: for Lactone impurity / M-2 impurity / Total impurities / Total impurities, number of peaks / Change of concentration of impurity M-2 relative to the initial concentration: 25° C.; for Lactone impurity / M-2 impurity / Total impurities / Total impurities, number of peaks: 60% RH; for Increase in the concentration of rosuvastatin lactone: after one month storage; for Change of concentration of impurity M-2 relative to the initial concentration: one month, 60% relative humidity. As to the method:
Chemical stability of amorphous and crystalline Form I rosuvastatin zinc salts (2:1) has been determined by challenging said substances at the storage condition of 25° C., 60% relative humidity.

Where [3] appears, read: listed as amorphous rosuvastatin zinc salt (2:1).

Structures can show the parent of a compound that is named as a salt.

For the molecule `CC(C)c1nc(N(C)S(C)(=O)=O)nc(-c2ccc(F)cc2)c1/C=C/[C@@H](O)C[C@@H](O)CC(=O)O` [Amorphous, 7-[4-(4-fluorophenyl)-6-isopropyl-2-(methanesulfonyl-methyl-amino)-pyrimidin-S-yl]-(3R,5S)-dihydroxy-hept-6-enoic acid zinc salt (2:1), reference compound], the “Amount of water absorbed” value in data set [1] (setting [3]) is reported as 1.88 % by weight. In data set [2] (1 month), the Lactone impurity amounted to 0.51%; the M-2 impurity was 0.10%; the Total impurities is recorded as 0.77%; the “Total impurities, number of peaks” value was “(6 peaks)”. Besides, in data set [2] (Initial), the Lactone impurity is recorded as 0.10%; the M-2 impurity came out at 0.03%; the Total impurities amounted to 0.38%; the “Total impurities, number of peaks” value is reported as “(7 peaks)”. Moreover, in data set [2] (setting [3]), the “Increase in the concentration of rosuvastatin lactone” value is listed as “five-fold increase”. In addition, the “Change of concentration of impurity M-2 relative to the initial concentration” value in data set [2] (listed as amorphous form of rosuvastatin zinc salt) is “three-fold of the initial concentration”.

With `CC(C)c1nc(N(C)S(C)(=O)=O)nc(-c2ccc(F)cc2)c1/C=C/[C@@H](O)C[C@@H](O)CC(=O)O` [Form I, 7-[4-(4-fluorophenyl)-6-isopropyl-2-(methanesulfonyl-methyl-amino)-pyrimidin-5-yl]-(3R,5S)-dihydroxy-hept-6-enoic acid zinc salt (2:1)], the “Amount of water absorbed” value in data set [1] (listed as crystalline Form I rosuvastatin zinc salt (2:1)) is listed as 0.24 % by weight. Also, in data set [2] (1 month), the Lactone impurity is recorded as 0.32%; the M-2 impurity came to 0.08%; the Total impurities was 0.49%; the “Total impurities, number of peaks” value is reported as “(3 peaks)”. In addition, in data set [2] (Initial), the Lactone impurity is recorded as 0.13%; the M-2 impurity is given as 0.07%; the Total impurities worked out at 0.28%; the “Total impurities, number of peaks” value is reported as “(3 peaks)”. Also, the “Increase in the concentration of rosuvastatin lactone” value in data set [2] (listed as crystalline Form I of rosuvastatin zinc salt (2:1)) was “much less prone to form lactone of rosuvastatin”. Besides, the “Total amount of the impurities and number of the individual impurities during storage, compared with the amorphous form” value in data set [2] (during storage) is on record as “significantly lower”. For the same molecule, the “Change of concentration of impurity M-2 relative to the initial concentration” value in data set [2] (listed as crystalline Form I substance) is on record as “practically unchanged”.
